Literature values, collected in US20220313582A1, “METHOD FOR DYEING KERATINOUS MATERIAL, COMPRISING THE USE OF AN ORGANOSILICON COMPOUND, A CHROMOPHORIC COMPOUND AND A FILM-FORMING POLYMER II” (Henkel AG & Co. KGaA, priority 2019, published 2022).

Conditions: for solubility in water: 25° C.

Compound	solubility in water	solubility in water (in words) (at 25° C.)
Nc1cc(S(=O)(=O)[O-])cc2cc(S(=O)(=O)[O-])c(N=Nc3ccccc3)c(O)c12.[Na+].[Na+] [Acid Red 33, disodium salt of 5-amino-4-hydroxy-3-(phenylazo)-naphthalene-2,7-disulphonate]	2500 µg/mL	–
O=C([O-])C1=NN(c2ccc(S(=O)(=O)[O-])cc2)C(=O)C1N=Nc1ccc(S(=O)(=O)[O-])cc1.[Na+].[Na+].[Na+] (stereo not shown) [Acid Yellow 23, trisodium salt of 4,5-dihydro-5-oxo-1-(4-sulfophenyl)-4-((4-sulfophenyl)azo)-1H-pyrazole-3-carboxylic acid]	–	highly soluble
O=C([O-])c1c(Cl)c(Cl)c(Cl)c(Cl)c1-c1c2c(Br)cc(=O)c(Br)c-2oc2c(Br)c(O)cc(Br)c12.O=C([O-])c1c(Cl)c(Cl)c(Cl)c(Cl)c1-c1c2c(Br)cc(=O)c(Br)c-2oc2c(Br)c(O)cc(Br)c12.[Na+].[Na+] [Acid Red 92, disodium salt of 3,4,5,6-tetrachloro-2-(1,4,5,8-tetrabromo-6-hydroxy-3-oxoxanthen-9-yl)benzoic acid]	greater than 10 g/L	–
O=S(=O)([O-])c1ccc(N=Nc2c(O)ccc3ccccc23)cc1.[Na+] [Acid Orange 7, sodium salt of 4-[(2-hydroxy-1-naphthyl)azo]benzene sulphonate]	more than 7 g/L	–
